# Reference: US20240409536A1, “COMPOUNDS AND METHODS FOR MODULATING SPLICING” (REMIX THERAPEUTICS INC., priority 2021, published 2024)
# Legend:
# HTT mRNA = experiment: Gene panel canonical junction qPCR assay, HTT CJ mRNA decrease; type: cell-based, human; conditions: Homo sapiens, canonical junction qPCR, read-out: HTT IC50 (decrease in CJ mRNA levels)
# Procedure, shortened: (§1)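 A673 or K562 cells treated with compound; canonical exon-exon junction mRNA quantified by cDNA synthesis and RT-qPCR with junction-spanning primer/probe, normalized to GAPDH, GUSB or PPIA and DMSO (2^(−ΔΔCt)). Percent response from set ΔCt assay windows fitted to 4-parameter logistic; IC50 for CJ decrease.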
# MYB mRNA = experiment: Gene panel canonical junction qPCR assay, MYB CJ mRNA decrease; type: cell-based, human; conditions: Homo sapiens, canonical junction qPCR, read-out: MYB IC50 (decrease in CJ mRNA levels)
# Procedure, shortened: as §1
# SMN2 mRNA = experiment: Gene panel canonical junction qPCR assay, SMN2 CJ mRNA decrease; type: cell-based, human; conditions: Homo sapiens, canonical junction qPCR, read-out: SMN2 IC50 (decrease in CJ mRNA levels)
# Procedure, shortened: as §1
# Target C mRNA = experiment: Gene panel canonical junction qPCR assay, Target C CJ mRNA decrease; type: cell-based; conditions: Homo sapiens, canonical junction qPCR, read-out: Target C IC50 (decrease in CJ mRNA levels)
# Procedure, shortened: as §1
# Target C = experiment: HiBiT protein abundance assay, Target C (K562 HiBiT knock-in cells); type: cell-based, human; conditions: 24 hours
# Procedure, shortened: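 Protein abundance read by HiBiT lytic luminescence after 24 h compound exposure (37 °C) of knock-in K562 cells, 10000 cells/well in IMDM+1% FBS. Dosing: 10 points, 3-fold, top 10 μM final, ≤0.25% DMSO. Four-parameter logistic fit gave concentration reducing abundance to 50% of untreated control.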
# K562 cells = experiment: Cell Titer Glo 2.0 cell viability assay in K562 cells; conditions: 72 hours
smiles,measurement,setting,value
"Cc1cn2cc(NC(=O)c3ccc(N4CCN[C@@H](C(C)C)C4)c4nccnc34)cc(F)c2n1 [Compound 250, N-{8-fluoro-2-methylimidazo[1,2-a]pyridin-6-yl}-8-[(3S)-3-isopropylpiperazin-1-yl]quinoxaline-5-carboxamide]",IC50,HTT mRNA,> 10000 nM
same,IC50,MYB mRNA,100 to 1000 nM
same,IC50,SMN2 mRNA,< 100 nM
same,IC50,Target C mRNA,> 10000 nM
same,IC50,Target C,> 10000 nM
same,Viability,K562 cells,B (B represents 100-1000 nM)
"Cc1cn2cc(NC(=O)c3ccc(N4CCN[C@@H](C5CC5)C4)c4nccnc34)cc(F)c2n1 [Compound 252, 8-[(3S)-3-cyclopropylpiperazin-1-yl]-N-{8-fluoro-2-methylimidazo[1,2-a]pyridin-6-yl}quinoxaline-5-carboxamide]",IC50,HTT mRNA,> 10000 nM
same,IC50,MYB mRNA,100 to 1000 nM
same,IC50,SMN2 mRNA,< 100 nM
same,IC50,Target C mRNA,> 10000 nM
same,IC50,Target C,1000 to 10000 nM
same,Viability,K562 cells,B (B represents 100-1000 nM)
"Cc1cn2cc(NC(=O)c3ccc(N4CCN[C@H](C5CC5)C4)c4nccnc34)cc(F)c2n1 [Compound 253, 8-[(3R)-3-cyclopropylpiperazin-1-yl]-N-{8-fluoro-2-methylimidazo[1,2-a]pyridin-6-yl}quinoxaline-5-carboxamide]",IC50,HTT mRNA,1000 to 10000 nM
same,IC50,MYB mRNA,< 100 nM
same,IC50,SMN2 mRNA,< 100 nM
same,IC50,Target C mRNA,> 10000 nM
same,IC50,Target C,1000 to 10000 nM
same,Viability,K562 cells,A (A represents <100 nM)
"Cc1cn2cc(NC(=O)c3ccc(N4CCN5CCOC[C@@H]5C4)c4nccnc34)cc(F)c2n1 [Compound 255, (S)—N-(8-fluoro-2-methylimidazo[1,2-a]pyridin-6-yl)-8-(hexahydropyrazino[2,1-c][1,4]oxazin-8(1H)-yl)quinoxaline-5-carboxamide]",IC50,HTT mRNA,100 to 1000 nM
same,IC50,MYB mRNA,100 to 1000 nM
same,IC50,SMN2 mRNA,100 to 1000 nM
same,IC50,Target C mRNA,100 to 1000 nM
same,IC50,Target C,100 to 1000 nM
same,Viability,K562 cells,B (B represents 100-1000 nM)
"Cc1cn2cc(NC(=O)c3ccc(N4CCN5CCOC[C@H]5C4)c4nccnc34)cc(F)c2n1 [Compound 256, (R)—N-(8-fluoro-2-methylimidazo[1,2-a]pyridin-6-yl)-8-(hexahydropyrazino[2,1-c][1,4]oxazin-8(1H)-yl)quinoxaline-5-carboxamide]",IC50,HTT mRNA,1000 to 10000 nM
same,IC50,MYB mRNA,1000 to 10000 nM
same,IC50,SMN2 mRNA,1000 to 10000 nM
same,IC50,Target C mRNA,1000 to 10000 nM
same,IC50,Target C,1000 to 10000 nM
same,Viability,K562 cells,C (C represents 1000-9999 nM)
Cc1cn2cc(NC(=O)c3ccc(N4CC(C)NC(C)C4)c4nc(C)c(C)nc34)cc(F)c2n1 (stereo not drawn) [Compound 257],IC50,HTT mRNA,1000 to 10000 nM
same,IC50,MYB mRNA,100 to 1000 nM
same,IC50,SMN2 mRNA,< 100 nM
same,IC50,Target C mRNA,1000 to 10000 nM
same,IC50,Target C,1000 to 10000 nM
same,Viability,K562 cells,B (B represents 100-1000 nM)
"Cc1cn2cc(NC(=O)c3ccc(N4CCC(NC5CC5)CC4)c4nccnc34)cc(F)c2n1 [Compound 258, 8-(4-(cyclopropylamino)piperidin-1-yl)-N-(8-fluoro-2-methylimidazo[1,2-a]pyridin-6-yl)quinoxaline-5-carboxamide]",IC50,HTT mRNA,100 to 1000 nM
same,IC50,MYB mRNA,100 to 1000 nM
same,IC50,SMN2 mRNA,< 100 nM
same,IC50,Target C mRNA,100 to 1000 nM
same,IC50,Target C,100 to 1000 nM
same,Viability,K562 cells,B (B represents 100-1000 nM)
"Cc1cn2cc(NC(=O)c3ccc(N4CCC(NC5CC5)CC4)c4ccnnc34)cc(F)c2n1 [Compound 259, 5-[4-(cyclopropylamino)piperidin-1-yl]-N-{8-fluoro-2-methylimidazo[1,2-a]pyridin-6-yl} cinnoline-8-carboxamide]",IC50,HTT mRNA,100 to 1000 nM
same,IC50,MYB mRNA,< 100 nM
same,IC50,SMN2 mRNA,< 100 nM
same,IC50,Target C mRNA,1000 to 10000 nM
same,IC50,Target C,1000 to 10000 nM
same,Viability,K562 cells,A (A represents <100 nM)
"COc1nc2c(N3C[C@@H](C)N[C@@H](C)C3)ccc(C(=O)Nc3cc(F)c4nc(C)cn4c3)c2nc1C [Compound 260, 8-((3R,5S)-3,5-dimethylpiperazin-1-yl)-N-(8-fluoro-2-methylimidazo[1,2-a]pyridin-6-yl)-2-methoxy-3-methylquinoxaline-5-carboxamide; 2,2,2-trifluoroacetate]",IC50,HTT mRNA,100 to 1000 nM
same,IC50,MYB mRNA,100 to 1000 nM
same,IC50,SMN2 mRNA,< 100 nM
same,IC50,Target C mRNA,1000 to 10000 nM
same,IC50,Target C,1000 to 10000 nM
same,Viability,K562 cells,C (C represents 1000-9999 nM)
"Cc1cn2cc(NC(=O)c3c(F)cc(N4C[C@@H](C)N[C@@H](C)C4)c4nccnc34)cc(F)c2n1 [Compound 261, cis-8-[(3R,5S)-3,5-dimethylpiperazin-1-yl]-6-fluoro-N-{8-fluoro-2-methylimidazo[1,2-a]pyridin-6-yl}quinoxaline-5-carboxamide]",IC50,HTT mRNA,1000 to 10000 nM
same,IC50,MYB mRNA,< 100 nM
same,IC50,SMN2 mRNA,< 100 nM
same,IC50,Target C mRNA,1000 to 10000 nM
same,IC50,Target C,1000 to 10000 nM
same,Viability,K562 cells,B (B represents 100-1000 nM)
"Cc1cn2cc(NC(=O)c3ccc(N4C[C@@H](C)N[C@@H](C5CC5)C4)c4nccnc34)cc(F)c2n1 [Compound 266, 8-((3S,5R)-3-cyclopropyl-5-methylpiperazin-1-yl)-N-(8-fluoro-2-methylimidazo[1,2-a]pyridin-6-yl)quinoxaline-5-carboxamide]",IC50,HTT mRNA,1000 to 10000 nM
same,IC50,MYB mRNA,< 100 nM
same,IC50,SMN2 mRNA,< 100 nM
same,IC50,Target C mRNA,> 10000 nM
same,IC50,Target C,100 to 1000 nM
same,Viability,K562 cells,B (B represents 100-1000 nM)
